Data from patent US8664244B2, “Compounds as c-Met kinase inhibitors” (Advenchen Pharmaceuticals, LLC, priority 2010, dated 2014).
Like-named read-outs stand apart in the source and are kept apart here.

Experiments:
Assay type in all cases: cell-based
[1] = system: SHG44; experiment: Tumor cell line inhibition, SHG44
[2] = system: A549; experiment: Tumor cell line inhibition, A549
[3] = system: PC-3M; experiment: Tumor cell line inhibition, PC-3M; settings: PC-3M tumor cell line

IC50 ([1]; SHG-44) | IC50 ([2]; Homo sapiens) | IC50 ([3]; Homo sapiens) | SMILES | IC50 [1] | IC50 [2] | IC50 [3]
26 µM | 45.4 µM | 53.2 µM | COc1ccc(COC(=O)NC2(COc3cc4nccc(Oc5ccc(NC(=O)C6(C(=O)Nc7ccccc7)CC6)cc5F)c4cc3OC)CC2)cc1 [Example 13, 4-methoxybenzyl 1-((4-(4-(1-(phenylcarbamoyl)cyclopropanecarboxamido)-2-fluoro-phenoxy)-6-methoxyquinolin-7-yloxy)methyl)cyclopropylcarbamate] | – | – | –
1.41 µM | 0.549 µM | 12.5 µM | COc1cc2c(Oc3ccc(N(C(=O)C4(C(N)=O)CC4)c4ccccc4)c(F)c3)ccnc2cc1OCC1(N)CC1 [Example 14, N-(4-(7-((1-aminocyclopropyl)methoxy)-6-methoxyquinolin-4-yloxy)-2-fluorophenyl)-N-(phenyl)cyclopropane-1,1-dicarboxamide] | – | – | –
0.199 µM | 0.0407 µM | 4.89 µM | COc1cc2c(Oc3ccc(N(C(=O)C4(C(N)=O)CC4)c4ccc(F)cc4)cc3F)ccnc2cc1OCC1(NC2CCOCC2)CC1 [Example 3, N-(3-fluoro-4-(6-methoxy-7-((1-(tetrahydro-2H-pyran-4-ylamino)cyclopropyl)methoxy)quinolin-4-yloxy)phenyl)-N-(4-fluorophenyl)cyclopropane-1,1-dicarboxamide] | – | – | –
2.18 µM | 2.22 µM | 6.02 µM | COc1cc2c(Oc3ccc(N(C(=O)C4(C(N)=O)CC4)c4ccc(F)c(F)c4)c(F)c3)ccnc2cc1OCC1(NC2CCOCC2)CC1 [Example 9, N-(3,4-difluorophenyl)-N-(2-fluoro-4-(6-methoxy-7-((1-(tetrahydro-2H-pyran-4-ylamino)-cyclopropyl)methoxy)quinolin-4-yloxy)phenyl)cyclopropane-1,1-dicarboxamide] | – | – | –
39.1 µM | 36 µM | 51 µM | COc1ccc(COC(=O)NC2(COc3cc4nccc(Oc5ccc(NC(=O)C6(C(=O)Nc7ccc(F)c(F)c7)CC6)c(F)c5)c4cc3OC)CC2)cc1 [Example 7, 4-methoxybenzyl 1-((4-(4-(1-(3,4-difluorophenylcarbamoyl)cyclopropanecarboxamido)-3-fluoro-phenoxy)-6-methoxyquinolin-7-yloxy)methyl)cyclopropylcarbamate] | – | – | –
– | – | – | COc1ccc(COC(=O)NC2(COc3cc4nccc(Oc5ccc(NC(=O)C6(C(=O)Nc7ccc(F)cc7)CC6)cc5F)c4cc3OC)CC2)cc1 [Example 1, 4-methoxybenzyl-1-((4-(2-fluoro-4-(1-(4-fluorophenylcarbamoyl)cyclopropanecarboxamido)-phenoxy)-6-methoxyquinolin-7-yloxy)methyl)cyclopropylcarbamate] | 5.74 µM | 3.32 µM | 35.6 µM
0.589 µM | 0.0659 µM | 16.1 µM | COc1cc2c(Oc3ccc(N(C(=O)C4(C(N)=O)CC4)c4ccc(F)c(F)c4)c(F)c3)ccnc2cc1OCC1(NCC2CC2)CC1 [Example 11, N-(4-(7-((1-(cyclopropylmethylamino)cyclopropyl)methoxy)-6-methoxyquinolin-4-yloxy)-2-fluorophenyl)-N-(3,4-difluorophenyl)cyclopropane-1,1-dicarboxamide] | – | – | –
